The text below walks through data of publication PMC10608878, “Synthesis and Antiproliferative Activity of 2,6-Disubstituted Imidazo[4,5-b]pyridines Prepared by Suzuki Cross Coupling” (Molecules, 2023).

What all share (assay type): cell-based, human
The subject of test [1] is Capan-1 pancreatic adenocarcinoma cells. Put plainly: Antiproliferative activity, Capan-1 cells. The conditions noted are these: Capan-1, 72 h incubation. How it is done: (§1) All prepared imidazo[4,5-b]pyridines were tested for their antiproliferative activity against the following cancer cell lines: LN-229—glioblastoma, Capan-1—pancreatic adenocarcinoma, HCT-116—colorectal carcinoma, NCI-H460—lung carcinoma, DND-41—acute lymphoblastic leukemia, HL-60—acute myeloid leukemia, K-562—chronic myeloid leukemia, and Z-138—non-Hodgkin lymphoma cancer cells. An overview of the results is presented in Table 2 as IC50 values (50% inhibitory concentration). An established antitumor drug, etoposide (ETO), was included for comparison.
(§2) For proliferation assays, the human cancer cell lines used in this manuscript, namely Capan-1, HCT-116, NCI-H460, LN-229, HL-60, K-562, and Z-138, were acquired from the American Type Culture Collection (ATCC, Manassas, VA, USA), while the DND-41 cell line was purchased from the Deutsche Sammlung von Mikroorganismen und Zellkulturen (DSMZ Leibniz-Institut, Braunschweig, Germany). Culture media were purchased from Gibco (Gibco Life Technologies, Merelbeke, Belgium) and supplemented with 10% fetal bovine serum (HyClone, Cytiva, Marlborough, MA, USA). Adherent cell lines LN-229, HCT-116, NCI-H460, and Capan-1 cells were seeded in 384-well tissue culture plates (Greiner, Kremsmünster, Austria) at a density between 500 and 1500 cells per well (500 cells per well for Capan-1, 1000 cells per well for LN-229 and HCT-116, and 1500 cells per well for NCI-H460). The cells were treated with seven different concentrations of the test compounds in a 5-fold dilution series ranging from 100 to 0.006 µM after overnight incubation. Suspension cell lines HL-60, K-562, Z-138, and DND-41 were seeded at densities ranging from 2500 to 5500 cells per well (2500 cells per well for HL-60, K-562, and Z-138, and 5500 cells per well for DND-41) in 384-well culture plates containing the test compounds at the same concentration points. All conditions were incubated for 72 h before measuring the cell viability by the CellTiter 96® AQueous Non-Radioactive Cell Proliferation Assay (Promega, Madison, WA, USA) according to the manufacturer’s instructions. After 3 h, absorbance of all conditions was measured at 490 nm using a SpectraMax Plus 384 (Molecular Devices, San Jose, CA, USA), and the OD values were used to calculate the 50% inhibitory concentration (IC50). Compounds were tested in two independent experiments.

Test [2] deals with HCT-116 colorectal carcinoma cells. Nature of the test: Antiproliferative activity, HCT-116 cells. The conditions noted are these: HCT-116, 72 h incubation. How it is done: as §1, §2
Test [3] has as its system Z-138 non-Hodgkin lymphoma cells. Put plainly: Antiproliferative activity, Z-138 cells. The note with it: Z-138, 72 h incubation. The method, then:
as §1, §2

Test [4] deals with K-562 chronic myeloid leukemia cells. Put plainly: Antiproliferative activity, K-562 cells. The note with it: K-562, 72 h incubation. How it is done:
as §1, §2

Test [5] concerns HL-60 acute myeloid leukemia cells. Nature of the test: Antiproliferative activity, HL-60 cells. The conditions noted are these: HL-60, 72 h incubation. How it is done: as §1, §2
Test [6] deals with LN-229 glioblastoma cells. Put plainly: Antiproliferative activity, LN-229 cells. The conditions noted are these: LN-229, 72 h incubation. The method, then: as §1, §2
The test system of test [7] is DND-41 acute lymphoblastic leukemia cells. Put plainly: Antiproliferative activity, DND-41 cells. The note with it: DND-41, 72 h incubation. How it is done:
as §1, §2

The test system of test [8] is NCI-H460 lung carcinoma cells. Put plainly: Antiproliferative activity, NCI-H460 cells. The conditions noted are these: NCI-H460, 72 h incubation. The method, then:
as §1, §2

Molecules are shown by their SMILES. Structures can show the parent of a compound that is named as a salt.

Turning to `c1ccc(-c2cnc3[nH]c(-c4ccccc4)nc3c2)cc1` [Compound 12, 2.6-diphenyl-3H-imidazo[4,5-b]pyridine], the IC50 (as a rule, the concentration that gives 50% inhibition) is 35.3 µM in test [1] (Homo sapiens, CAPAN-1, 72 h); above 100 µM in test [2] (Homo sapiens, HCT-116, 72 h); 30.1 µM in test [3] (Homo sapiens, Z-138, 72 h); above 100 µM in test [4] (Homo sapiens, K562, 72 h); 52.3 µM in test [5] (Homo sapiens, HL-60, 72 h); above 100 µM in test [6] (Homo sapiens, LN-229, 72 h). Further, the IC50 in test [7] (Homo sapiens, DND41, 72 h) was above 100 µM; in test [8] (Homo sapiens, NCI-H460, 72 h), above 100 µM.

Consider `Cn1c(-c2ccccc2)nc2cc(-c3ccc(N)cc3)cnc21` [Compound 25, 4-(3-methyl-2-phenyl-3H-imidazo [4,5-b]pyridin-6-yl)aniline hydrochloride], for which the IC50 in test [1] was 67.3 µM; in test [2] it was 56.2 µM; in test [3] it was 25.5 µM; in test [4], 39 µM; in test [5], 23.7 µM; in test [6], 59.1 µM. Also, the IC50 in test [7] and in test [8] was above 100 µM in each case.

Take `Nc1ccc(-c2cnc3[nH]c(-c4ccccc4)nc3c2)cc1` [Compound 18, 4-(2-phenyl-3H-imidazo [4,5-b]pyridin-6-yl)aniline hydrochloride]: the IC50 in test [1] was 7.29 µM; in test [2], above 100 µM; in test [3], 34.8 µM; in test [4], 84.7 µM; in test [5], 46.1 µM; in test [6], 63.6 µM. The IC50 in test [7] was 70.9 µM; in test [8], above 100 µM.

As to `COc1ccc(-c2cnc3c(c2)nc(-c2ccccc2)n3C)cc1` [Compound 20, 6-(4-methoxyphenyl)-3-methyl-2-phenyl-3H-imidazo [4,5-b]pyridine], the IC50 was above 100 µM in test [1] (Homo sapiens, CAPAN-1, 72 h); above 100 µM in test [2] (Homo sapiens, HCT-116, 72 h); 86 µM in test [3] (Homo sapiens, Z-138, 72 h); above 100 µM in test [4] (Homo sapiens, K562, 72 h); 62.5 µM in test [5] (Homo sapiens, HL-60, 72 h); above 100 µM in test [6] (Homo sapiens, LN-229, 72 h). Further, the IC50 in test [7] (Homo sapiens, DND41, 72 h) was above 100 µM; in test [8] (Homo sapiens, NCI-H460, 72 h) it was above 100 µM.

Consider `Nc1ccc(-c2cnc3[nH]c(-c4ccccc4)nc3c2)cc1` [Compound 17, 4-(2-phenyl-3H-imidazo [4,5-b]pyridin-6-yl)aniline], for which the IC50 was 26.6 µM in test [1]; above 100 µM in test [2] (Homo sapiens, HCT-116, 72 h); 40.9 µM in test [3] (Homo sapiens, Z-138, 72 h); 83.2 µM in test [4] (Homo sapiens, K562, 72 h); 41.5 µM in test [5] (Homo sapiens, HL-60, 72 h); 73 µM in test [6] (Homo sapiens, LN-229, 72 h). For the same compound, the IC50 in test [7] (Homo sapiens, DND41, 72 h) was 76.4 µM; in test [8] (Homo sapiens, NCI-H460, 72 h), above 100 µM.

As to `O=[N+]([O-])c1ccc(-c2cnc3[nH]c(-c4ccccc4)nc3c2)cc1` [Compound 16, 6-(4-nitrophenyl)-2-phenyl-3H-imidazo[4,5-b]pyridine], the IC50 in test [1] (Homo sapiens, CAPAN-1, 72 h) was above 100 µM; in test [2] (Homo sapiens, HCT-116, 72 h) it was above 100 µM; in test [3] (Homo sapiens, Z-138, 72 h), 65.2 µM; in test [4] (Homo sapiens, K562, 72 h), above 100 µM; in test [5] (Homo sapiens, HL-60, 72 h) it was 79 µM; in test [6] (Homo sapiens, LN-229, 72 h), above 100 µM. For the same compound, the IC50 in test [7] (Homo sapiens, DND41, 72 h) was above 100 µM; in test [8] (Homo sapiens, NCI-H460, 72 h) it was above 100 µM.

As for `COc1ccc(-c2cnc3[nH]c(-c4ccccc4)nc3c2)cc1` [Compound 14, 6-(4-methoxyphenyl)-2-phenyl-3H-imidazo [4,5-b]pyridine], the IC50 in test [1] (Homo sapiens, CAPAN-1, 72 h) was above 100 µM; in test [2] (Homo sapiens, HCT-116, 72 h) it was above 100 µM; in test [3] (Homo sapiens, Z-138, 72 h), above 100 µM; in test [4] (Homo sapiens, K562, 72 h) it was above 100 µM; in test [5] (Homo sapiens, HL-60, 72 h) it was 69.4 µM; in test [6] (Homo sapiens, LN-229, 72 h) it was above 100 µM. The IC50 was above 100 µM in test [7] (Homo sapiens, DND41, 72 h) and above 100 µM in test [8] (Homo sapiens, NCI-H460, 72 h).

For the compound `Cn1c(-c2ccccc2)nc2cc(-c3ccc(C#N)cc3)cnc21` [Compound 21, 4-(3-methyl-2-phenyl-3H-imidazo [4,5-b]pyridin-6-yl)benzonitrile], the IC50 in test [1] (Homo sapiens, CAPAN-1, 72 h) is above 100 µM; in test [2] (Homo sapiens, HCT-116, 72 h), above 100 µM; in test [3] (Homo sapiens, Z-138, 72 h), 62.8 µM; in test [4] (Homo sapiens, K562, 72 h), above 100 µM; in test [5] (Homo sapiens, HL-60, 72 h) it was 83.1 µM; in test [6] (Homo sapiens, LN-229, 72 h), above 100 µM. For the same compound, the IC50 in test [7] (Homo sapiens, DND41, 72 h) was above 100 µM; in test [8] (Homo sapiens, NCI-H460, 72 h), above 100 µM.
